This passage reports IC50 results from BindingDB's records for PubMed 31931340 (n/a, 2020).

pIC50: −log10 of the molar value.

The assay concerns the target PIK3CA. Description: Inhibition of human P13Kalpha.

The pIC50 is the negative decadic logarithm of the IC50, by convention in mol/L. Higher therefore signals a small IC50. Regarding `CN(c1nc(-c2cnc(N)nc2)nc(N2CCOCC2)n1)C1CCN(C(=O)c2ccccc2)CC1`, the negative logarithm of the IC50 (pIC50) was 7.82.
